Results published in patent EP2140864A2 (H. Lundbeck A/S, priority 2001, dated 2002).
Where two headings read alike, the source gives them in different places.

What was measured:
human 5HT1D = molecular target: T1, human 5HT1D (Homo sapiens, UniProt P28221); assay: Radioligand binding, 5HT1D receptor ([3H]-serotonin)
T1 construct: expressed in transfected cells
Procedure: Human 5HT1B, 5HT1D, 5HT1E, 5HT1F, and 5HT7 Receptors: The cell lysates of LM(tk-) clonal cell line stably transfected with the genes encoding each of these 5HT receptor-subtypes were prepared as described above. Cell membranes were suspended in 50mM Tris-HCl buffer (pH 7.4 at 37°C) containing 10 mM MgCl2, 0.2 mM EDTA, 10 µM pargyline, and 0.1% ascorbate. […] Nonspecific binding was determined in the presence of 10 µM serotonin. The bound radioligand was separated by filtration through GF/B filters using a cell harvester.
(§1) Binding data were analyzed using nonlinear regression and statistical techniques available in the GraphPAD Prism package (San Diego, CA). Enzymatic assay data were derived from a standard curve of reference compound data.

Human 5HT2A Receptor = molecular target: T2, Human 5HT2A Receptor (Homo sapiens, UniProt P28223); assay: Radioligand binding, 5HT2A receptor ([3H]ketanserin)
T2 construct: expressed in transfected cells; host or cells: COS-7 cells (pCEXV-3 vector, DEAE-dextran)
T2 sequence (P28223 whole entry): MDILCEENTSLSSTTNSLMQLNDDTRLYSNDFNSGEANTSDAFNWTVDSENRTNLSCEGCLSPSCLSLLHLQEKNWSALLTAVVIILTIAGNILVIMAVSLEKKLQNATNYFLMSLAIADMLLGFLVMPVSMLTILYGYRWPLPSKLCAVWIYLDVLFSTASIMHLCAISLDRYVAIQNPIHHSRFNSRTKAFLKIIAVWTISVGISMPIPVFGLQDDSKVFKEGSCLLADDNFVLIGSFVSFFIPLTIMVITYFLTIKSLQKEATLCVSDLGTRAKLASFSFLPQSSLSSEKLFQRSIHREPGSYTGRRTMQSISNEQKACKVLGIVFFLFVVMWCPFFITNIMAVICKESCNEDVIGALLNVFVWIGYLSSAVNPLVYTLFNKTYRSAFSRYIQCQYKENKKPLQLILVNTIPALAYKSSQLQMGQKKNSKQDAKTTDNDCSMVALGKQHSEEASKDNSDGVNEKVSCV
Procedure: Human 5HT2A Receptor: The coding sequence of the human 5HT2A receptor was obtained from a human brain cortex cDNA library, and cloned into the cloning site of pCEXV-3 eukaryotic expression vector. This construct was transfected into COS-7 cells by the DEAE-dextran method (Cullen, 1987). Cells were harvested after 72 hours and lysed by sonication in 5 mM Tris-HCl, 5 mM EDTA, pH 7.5. The cell lysates were subjected to centrifugation at 1000 rpm for 5 minutes at 4°C, and the supernatant was subjected to centrifugation at 30,000 x g for 20 minutes at 4°C. The pellet was suspended in 50 mM Tris-HCl buffer (pH 7.7 at room temperature) containing 10 mM MgS04, 0.5 mM EDTA, and 0.1% ascorbate. The affinity of compounds at 5HT2A receptors were determined in equilibrium competition binding assays using [^3H]ketanserin (1 nM). Nonspecific binding was defined by the addition of 10 µM mianserin. The bound radioligand was separated by filtration through GF/B filters using a cell harvester.
as §1

human α2B adrenoceptor = molecular target: T3, human α2B adrenoceptor (Homo sapiens, UniProt P18089); assay: Radioligand binding, α2B adrenergic receptor
T3 construct: expressed in transfected cells
T3 sequence (P18089 1-450): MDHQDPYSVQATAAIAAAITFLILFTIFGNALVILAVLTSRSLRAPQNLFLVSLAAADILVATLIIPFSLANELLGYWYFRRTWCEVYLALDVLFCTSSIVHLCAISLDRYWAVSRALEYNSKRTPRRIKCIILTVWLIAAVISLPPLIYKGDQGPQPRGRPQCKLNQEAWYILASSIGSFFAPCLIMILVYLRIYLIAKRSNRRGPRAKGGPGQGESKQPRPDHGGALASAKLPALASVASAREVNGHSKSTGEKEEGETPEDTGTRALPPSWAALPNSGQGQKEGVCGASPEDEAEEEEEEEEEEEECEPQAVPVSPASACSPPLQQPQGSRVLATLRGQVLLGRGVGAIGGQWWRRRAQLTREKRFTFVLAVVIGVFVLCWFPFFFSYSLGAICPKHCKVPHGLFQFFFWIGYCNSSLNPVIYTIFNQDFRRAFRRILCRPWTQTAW
Text: (§2) Other receptors: Cell membranes expressing human dopamine D1, D2, D4 and rat D3 receptors were purchased through BioSignal, Inc. (Montreal, Canada). Binding assays using the histamine H1 receptor; dopamine receptors; and α1A, α1E, and α2 adrenergic receptors may be carried out according to the procedures described in U.S. Patent No. 5,780,485, the disclosure of which is hereby incorporated by reference in its entirety into this application. Binding assays using the dopamine D5 receptor may be carried out according to the procedures described in U.S. Patent No. 5,882,855, the disclosure of which is hereby incorporated by reference in its entirety into this application. Binding assays for the human α1D adrenergic receptor may be carried out according to the procedures described in U.S. Patent No. 6,156,518, the disclosure of which is hereby incorporated by reference in its entirety into this application.
as §1

human dopamine D4 = molecular target: T4, human dopamine D4 (Homo sapiens, UniProt P21917); assay: Radioligand binding, dopamine D4 receptor
T4 construct: purchased BioSignal, Inc. (Montreal, Canada)
T4 sequence (P21917 1-419): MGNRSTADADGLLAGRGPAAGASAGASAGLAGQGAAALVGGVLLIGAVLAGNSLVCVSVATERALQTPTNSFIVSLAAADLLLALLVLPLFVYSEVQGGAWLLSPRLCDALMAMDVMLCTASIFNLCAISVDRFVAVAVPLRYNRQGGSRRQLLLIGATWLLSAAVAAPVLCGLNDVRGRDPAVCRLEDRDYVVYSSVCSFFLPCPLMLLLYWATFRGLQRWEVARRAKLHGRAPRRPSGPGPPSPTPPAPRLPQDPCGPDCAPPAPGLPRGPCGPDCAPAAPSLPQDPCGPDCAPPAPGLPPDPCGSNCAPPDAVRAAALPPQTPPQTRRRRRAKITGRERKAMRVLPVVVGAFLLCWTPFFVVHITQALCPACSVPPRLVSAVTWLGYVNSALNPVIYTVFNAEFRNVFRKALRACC
Text: as §2, §1

[1] = Table 8; Ki h5HT1D divided by Ki hGAL3
[2] = Table 8; Ki h5HT2A divided by Ki hGAL3
[3] = Table 10; Ki hα2B divided by Ki hGAL3
[4] = Table 10; Ki hD4 divided by Ki hGAL3

T1 sequence (P28221 whole entry): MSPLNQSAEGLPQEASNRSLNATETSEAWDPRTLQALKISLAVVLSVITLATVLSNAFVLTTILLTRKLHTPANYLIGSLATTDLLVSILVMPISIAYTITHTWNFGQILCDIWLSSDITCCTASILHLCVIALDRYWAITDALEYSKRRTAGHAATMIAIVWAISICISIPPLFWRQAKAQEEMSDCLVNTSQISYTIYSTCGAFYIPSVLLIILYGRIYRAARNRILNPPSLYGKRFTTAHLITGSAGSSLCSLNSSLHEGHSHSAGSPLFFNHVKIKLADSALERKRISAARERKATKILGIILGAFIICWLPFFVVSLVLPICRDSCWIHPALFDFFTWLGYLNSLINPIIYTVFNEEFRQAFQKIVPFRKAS

## O=C1C(=Nc2ccc(C(F)(F)F)cc2)c2ccccc2N1c1ccccc1 [Example 95, 1-PHENYL-3-[[4-(TRIFLUOROMETHYL)PHENYL]IMINO]-1,3-DIHYDRO-2H-INDOL-2-ONE]
Human 5HT1D; Table 7; read-out: h5HT1D Ki
  Ki: 16 µM
Human 5HT1D; [1]
  selectivity ratio h5HT1D: >100
Human 5HT2A Receptor; Table 7; read-out: h5HT2A Ki
  Ki: > 50 µM
Human 5HT2A Receptor; [2]
  selectivity ratio h5HT2A: >100
Human α2B adrenoceptor; Table 9; read-out: hα2B Ki
  Ki: > 50 µM
Human α2B adrenoceptor; [3]
  selectivity ratio hα2B: >100
Human dopamine D4; Table 9; read-out: hD4 Ki
  Ki: > 50 µM
Human dopamine D4; [4]
  selectivity ratio hD4: >100

## Cc1ccc(Nc2cc(N(C)C)nc(N(C)CCc3c[nH]c4ccccc34)n2)cc1 [Example 77]
Human 5HT1D; Table 7; read-out: h5HT1D Ki
  Ki: 0.716 µM
Human 5HT1D; [1]
  selectivity ratio h5HT1D: 9
Human 5HT2A Receptor; Table 7; read-out: h5HT2A Ki
  Ki: 2.24 µM
Human 5HT2A Receptor; [2]
  selectivity ratio h5HT2A: 28
Human α2B adrenoceptor; Table 9; read-out: hα2B Ki
  Ki: 7.78 µM
Human α2B adrenoceptor; [3]
  selectivity ratio hα2B: >30
Human dopamine D4; Table 9; read-out: hD4 Ki
  Ki: 0.504 µM
Human dopamine D4; [4]
  selectivity ratio hD4: 6

## Cc1ccc(Nc2cc(N3CCCCC3)nc(N(C)CCc3ccccc3)n2)cc1 [Example 22]
Human 5HT1D; Table 7; read-out: h5HT1D Ki
  Ki: 1.85 µM
Human 5HT1D; [1]
  selectivity ratio h5HT1D: >30
Human 5HT2A Receptor; Table 7; read-out: h5HT2A Ki
  Ki: 20.7 µM
Human 5HT2A Receptor; [2]
  selectivity ratio h5HT2A: >100
Human α2B adrenoceptor; Table 9; read-out: hα2B Ki
  Ki: 5.76 µM
Human α2B adrenoceptor; [3]
  selectivity ratio hα2B: >100
Human dopamine D4; Table 9; read-out: hD4 Ki
  Ki: 11.6 µM
Human dopamine D4; [4]
  selectivity ratio hD4: >100

## O=C1C(=Nc2ccc(Cl)cc2)c2ccccc2N1c1ccccc1 [Example 97, 3-[(4-CHLOROPHENYL)IMINO]-1-PHENYL-1,3-DIHYDRO-2H-INDOL-2-ONE]
Human 5HT1D; Table 7; read-out: h5HT1D Ki
  Ki: 14.2 µM
Human 5HT1D; [1]
  selectivity ratio h5HT1D: >100
Human 5HT2A Receptor; Table 7; read-out: h5HT2A Ki
  Ki: > 50 µM
Human 5HT2A Receptor; [2]
  selectivity ratio h5HT2A: >100
Human α2B adrenoceptor; Table 9; read-out: hα2B Ki
  Ki: > 50 µM
Human α2B adrenoceptor; [3]
  selectivity ratio hα2B: >100
Human dopamine D4; Table 9; read-out: hD4 Ki
  Ki: > 50 µM
Human dopamine D4; [4]
  selectivity ratio hD4: >100

## COc1cccc(Nc2cc(N3CCCCC3)nc(N(C)CCc3c[nH]c4ccccc34)n2)c1 [Example 17]
Human 5HT1D; Table 7; read-out: h5HT1D Ki
  Ki: 1.03 µM
Human 5HT1D; [1]
  selectivity ratio h5HT1D: 12
Human 5HT2A Receptor; Table 7; read-out: h5HT2A Ki
  Ki: 7.16 µM
Human 5HT2A Receptor; [2]
  selectivity ratio h5HT2A: >30
Human α2B adrenoceptor; Table 9; read-out: hα2B Ki
  Ki: 38.7 µM
Human α2B adrenoceptor; [3]
  selectivity ratio hα2B: >100
Human dopamine D4; Table 9; read-out: hD4 Ki
  Ki: 22.2 µM
Human dopamine D4; [4]
  selectivity ratio hD4: >100

## COC[C@@H]1[C@@H](c2ccccc2)OCCN1c1nc(Nc2ccc(C)cc2)cc(N2CCCCC2)n1 [Example 49]
Human 5HT1D; [1]
  selectivity ratio h5HT1D: >30
Human 5HT1D; read-out: h5HT1D Ki; Table 7
  Ki: 16.9 µM
Human 5HT2A Receptor; [2]
  selectivity ratio h5HT2A: >100
Human 5HT2A Receptor; read-out: h5HT2A Ki; Table 7
  Ki: > 50 µM
Human α2B adrenoceptor; [3]
  selectivity ratio hα2B: >100
Human α2B adrenoceptor; read-out: hα2B Ki; Table 9
  Ki: 25.4 µM
Human dopamine D4; [4]
  selectivity ratio hD4: >100
Human dopamine D4; read-out: hD4 Ki; Table 9
  Ki: 45.8 µM

## CN(C)c1cc(Nc2ccc(Cl)c(Cl)c2)nc(Nc2ccccc2)n1 [Example 60]
Human 5HT1D; Table 7; read-out: h5HT1D Ki
  Ki: 9.2 µM
Human 5HT1D; [1]
  selectivity ratio h5HT1D: >100
Human 5HT2A Receptor; Table 7; read-out: h5HT2A Ki
  Ki: 26.1 µM
Human 5HT2A Receptor; [2]
  selectivity ratio h5HT2A: >100
Human α2B adrenoceptor; Table 9; read-out: hα2B Ki
  Ki: > 50 µM
Human α2B adrenoceptor; [3]
  selectivity ratio hα2B: >100
Human dopamine D4; Table 9; read-out: hD4 Ki
  Ki: 48.8 µM
Human dopamine D4; [4]
  selectivity ratio hD4: >100

## O=C1C(=Nc2ccc(Br)cc2)c2ccccc2N1c1ccccc1 [Example 98, 3-[(4-BROMOPHENYL)IMINO]-1-PHENYL-1,3-DIHYDRO-2H-INDOL-2-ONE]
Human 5HT1D; Table 7; read-out: h5HT1D Ki
  Ki: 9.12 µM
Human 5HT1D; [1]
  selectivity ratio h5HT1D: >100
Human 5HT2A Receptor; Table 7; read-out: h5HT2A Ki
  Ki: > 50 µM
Human 5HT2A Receptor; [2]
  selectivity ratio h5HT2A: >100
Human α2B adrenoceptor; Table 9; read-out: hα2B Ki
  Ki: > 50 µM
Human α2B adrenoceptor; [3]
  selectivity ratio hα2B: >100
Human dopamine D4; Table 9; read-out: hD4 Ki
  Ki: > 50 µM
Human dopamine D4; [4]
  selectivity ratio hD4: >100

## O=C1C(=Nc2cccc(Cl)c2)c2ccccc2N1c1ccccc1 [Example 94, 3-[(3-CHLOROPHENYL)IMINO]-1-PHENYL-1,3-DIHYDRO-2H-INDOL-2-ONE]
Human 5HT1D; Table 7; read-out: h5HT1D Ki
  Ki: 10.8 µM
Human 5HT1D; [1]
  selectivity ratio h5HT1D: >100
Human 5HT2A Receptor; Table 7; read-out: h5HT2A Ki
  Ki: > 50 µM
Human 5HT2A Receptor; [2]
  selectivity ratio h5HT2A: >100
Human α2B adrenoceptor; Table 9; read-out: hα2B Ki
  Ki: 45.4 µM
Human α2B adrenoceptor; [3]
  selectivity ratio hα2B: >100
Human dopamine D4; Table 9; read-out: hD4 Ki
  Ki: > 50 µM
Human dopamine D4; [4]
  selectivity ratio hD4: >100

## Cc1ccc(Nc2cc(N3CCCCC3)nc(N(C)CCc3c[nH]c4ccccc34)n2)cc1 [Example 11]
Human 5HT1D; Table 7; read-out: h5HT1D Ki
  Ki: 0.102 µM
Human 5HT1D; [1]
  selectivity ratio h5HT1D: 1
Human 5HT2A Receptor; Table 7; read-out: h5HT2A Ki
  Ki: 6.71 µM
Human 5HT2A Receptor; [2]
  selectivity ratio h5HT2A: >30
Human α2B adrenoceptor; Table 9; read-out: hα2B Ki
  Ki: 10.2 µM
Human α2B adrenoceptor; [3]
  selectivity ratio hα2B: >100
Human dopamine D4; Table 9; read-out: hD4 Ki
  Ki: 4.83 µM
Human dopamine D4; [4]
  selectivity ratio hD4: >30

## CN(CCc1c[nH]c2ccccc12)c1nc(Nc2ccc(F)c(F)c2)cc(N2CCCCC2)n1 [Example 15]
Human 5HT1D; Table 7; read-out: h5HT1D Ki
  Ki: 1.27 µM
Human 5HT1D; [1]
  selectivity ratio h5HT1D: 17
Human 5HT2A Receptor; Table 7; read-out: h5HT2A Ki
  Ki: 11.3 µM
Human 5HT2A Receptor; [2]
  selectivity ratio h5HT2A: >100
Human α2B adrenoceptor; Table 9; read-out: hα2B Ki
  Ki: 24.5 µM
Human α2B adrenoceptor; [3]
  selectivity ratio hα2B: >100
Human dopamine D4; Table 9; read-out: hD4 Ki
  Ki: 13.2 µM
Human dopamine D4; [4]
  selectivity ratio hD4: >30

## O=C1C(=Nc2cccc(C(F)(F)F)c2)c2ccccc2N1c1ccccc1 [Example 92, 1-PHENYL-3- [[3-(TRIFLUOROMETHYL)PHENYL]IMINO]-1,3-DIHYDRO-2H-INDOL-2-ONE]
Human 5HT1D; [1]
  selectivity ratio h5HT1D: >100
Human 5HT2A Receptor; [2]
  selectivity ratio h5HT2A: >100
Human α2B adrenoceptor; [3]
  selectivity ratio hα2B: >100
Human dopamine D4; [4]
  selectivity ratio hD4: >100

## Cc1ccc(Nc2cc(N3CCCCC3)nc(N3CCN(c4ncccc4C(F)(F)F)CC3)n2)cc1 [Example 34]
Human 5HT1D; Table 7; read-out: h5HT1D Ki
  Ki: 2.98 µM
Human 5HT1D; [1]
  selectivity ratio h5HT1D: >100
Human 5HT2A Receptor; [2]
  selectivity ratio h5HT2A: >100
Human α2B adrenoceptor; Table 9; read-out: hα2B Ki
  Ki: 15.5 µM
Human α2B adrenoceptor; [3]
  selectivity ratio hα2B: >100
Human dopamine D4; Table 9; read-out: hD4 Ki
  Ki: 18.7 µM
Human dopamine D4; [4]
  selectivity ratio hD4: >100
